From PMC6271697, “Anticancer Activities of Polyynes from the Root Bark of Oplopanax horridus and Their Acetylated Derivatives” (Molecules, 2014)
Several values for one entry are separate records, joined by “and”; a condition that tells them apart may be missing. Equal entries are not always repeated. Where two headings read alike, the source gives them in different places.

Legend:
Type in all cases: cell-based, human
[1] = tested on: A549 cells; test: MTT cell viability assay, A549 cells; conditions: for IC50: read-out: IC50 A549; for antiproliferative effect on A549 cells (in words): concentrations 1–300 µM
Experimental: (§1) The human breast cancer cell lines MCF-7, MDA-MB-231, human hepatocellular liver cell line HepG2 and human lung carcinoma epithelial cells A549 were purchased from American Type Culture Collection (ATCC, Manassas, VA, USA). Normal human hepatic LO2 cells were obtained from the Institute of Cell Biology, Academic Sinica (Shanghai, China). The cells were grown in an atmosphere of 5% CO2 at 37 °C in RPMI 1640 medium supplemented with 10% fetal bovine serum, 100 U/mL penicillin and […] streptomycin.
(§2) The viability of cells was measured by a colorimetric MTT assay. Briefly, 1 × 10^4 cells/well in 96-well microplates were exposed to different concentration of polyynes and their acetylated derivatives respectively for 24 h incubation, following addition of 20 μL MTT solution (4 mg/mL) to each well for another 4 h incubation at 37 °C. Finally, the medium was removed and replaced with 100 μL dimethyl sulfoxide which was added to dissolve the dye crystal presented in cells. The absorbance was recorded at 570 nm using a microplate reader (1420 Multilabel counter victor^3, Perkin-Elmer, Waltham, MA, USA). The results were expressed as ratio of absorbance between treatments and control cells (solvent vehicle set at 100%). Four replicate wells were tested per assay which was repeated three times.

[2] = tested on: MCF-7 cells; test: MTT cell viability assay, MCF-7 cells; conditions: for IC50: read-out: IC50 MCF-7; for antiproliferative effect on MCF-7 cells (in words): concentrations 1–300 µM
Experimental: as §1, §2

[3] = tested on: HepG2 cells; test: MTT cell viability assay, HepG2 cells; conditions: for IC50: read-out: IC50 HepG2; for antiproliferative effect on HepG2 cells (in words): concentrations 1–300 µM
Experimental: as §1, §2

[4] = tested on: LO2 cells; test: MTT cell viability assay, normal hepatic LO2 cells; conditions: read-out: IC50 LO2
Experimental: as §1, §2

[5] = tested on: MDA-MB-231 cells; test: MTT cell viability assay, MDA-MB-231 cells; conditions: for IC50: read-out: IC50 MDA-MB-231
Experimental: as §1, §2

[6] = tested on: MDA-MB-231 cells; test: Hoechst 33342 staining for apoptosis; conditions: OHR-1 15 μM, OHR-2 5 μM, OHR-3 10 μM, OHR-5 15 μM; 12 h
Experimental: MDA-MB-231 cells were seeded in the flat-bottomed 6-well plates and treated with OHR-1, -2, -3 and -5. Cells treated with solvent vehicle served as controls. In 12 h after treatment, cells were fixed in 4% polyoxymethylene solution for 30 min and then washed with PBS. The fixed cells were incubated with Hoechst 33342 for 15 min at room temperature in the dark and then washed with PBS twice, which were finally observed under a fluorescence microscope (Convert Fluorescence Microsope Axiovert 200, HAL 100, HBO 100, Carl Zeiss MicroImaging Co., Ltd., Oberkochen, Germany) at a magnification of ×400.

[7] = tested on: MDA-MB-231 cells; test: JC-1 mitochondrial membrane potential; conditions: high concentration (OHR-1 15 μM, OHR-2 5 μM, OHR-3 10 μM, OHR-5 15 μM), 24 h
Experimental: The MDA-MB-231 cells were treated with OHR-1, -2, -3 and -5 for 24 h in a humidified atmosphere (37 °C with 5% CO2). The cells were collected and responded in 0.5 mL culture medium with JC-1 dye (1 μg/mL) for 20 min at 37 °C in dark. Fluorescence was monitored by both flow cytometry (BD Biosciences, San Jose, CA, USA) and fluorescence microscope. The Δψm were indicated by the rato of […] fluorescence intensity. The data were expressed as ratio of Δψm between treatments and control cells (solvent vehicle set at 100%).

[8] = tested on: MDA-MB-231 cells; test: Cell cycle analysis by PI staining and flow cytometry; conditions: 24 h; for G2/M arrest rate at low concentration: OHR-1 7.5 μM, OHR-2 2.5 μM, OHR-3 5 μM, OHR-5 7.5 μM; for G2/M arrest rate at high concentration: OHR-1 15 μM, OHR-2 5 μM, OHR-3 10 μM, OHR-5 15 μM
Experimental: Cells were seeded in 6-well tissue culture plates and treated with DMSO control or different concentration of OHR-1, -2, -3 and -5 for 24 h. Then, the cells were harvested and fixed gently with cold 70% ethanol at −20 °C overnight. Finally, the cells were washed with PBS and re-suspended in 300 μL of propidium iodide (PI) stain solution (20 μg/mL PI and 8 μg/mL DNase-free RNase) for 20 min at room temperature in the dark. The cells were analyzed with a flow cytometry and Mod Fit LT 3.0 software (Variety Software House, Topsham, ME, USA). For each measurement, at least 20,000 cells were counted.

[9] = normal human hepatic cells, MTT, 24 h incubation
[10] = Homo sapiens, A549, MTT, 24 h incubation
[11] = Homo sapiens, MCF7, MTT, 24 h incubation
[12] = Homo sapiens, HepG2, MTT, 24 h incubation
[13] = L02, normal human hepatic cells, MTT, 24 h incubation
[14] = Homo sapiens, MDA-MB-231, MTT, 24 h incubation

| Molecule | IC50 ([1]; MTT, 24 h incubation) | IC50 ([2]; MTT, 24 h incubation) | IC50 ([3]; MTT, 24 h incubation) | IC50 [4, 9] | IC50 ([5]; MTT, 24 h incubation) | IC50 [1, 10] | IC50 [2, 11] | IC50 [3, 12] | IC50 [4, 13] | IC50 [5, 14] | further results |
| --- | --- | --- | --- | --- | --- | --- | --- | --- | --- | --- | --- |
| (3S,8S,Z)-Heptadeca-1,9-dien-4,6-diyne-3,8-diyl diacetate [OHR-2] | 24.7 ± 5.6 µM | 36.9 ± 4.8 µM | 6.6 ± 1.5 µM | 32.1 ± 9 µM | 4.8 ± 0.5 µM |  |  |  |  |  | induction of apoptosis (Hoechst staining) [6]: induce obvious apoptosis; effect on mitochondrial membrane potential Δψm (JC-1) [7]: decreasing the Δψm; G2/M arrest rate at low concentration [8]: 22.6% ± 2.6%; G2/M arrest rate at high concentration [8]: 30.4% ± 3.1% |
| (3S,8S,Z)-18-Hydroxyoctadeca-1,9-dien-4,6-diyne-3,8-diyl diacetate [OHR-14] | > 300 µM | > 300 µM | 150 to 300 µM | > 300 µM | 156 ± 35.5 µM |  |  |  |  |  | antiproliferative effect on A549 cells (in words) [1]: no cytotoxicity; antiproliferative effect on MCF-7 cells (in words) [2]: no cytotoxicity; antiproliferative effect on HepG2 cells (in words) [3]: no cytotoxicity; concentration showing some antiproliferative effects on MDA-MB-231 cells [5]: about 150 µM |
| C=C[C@H](O)C#CC#C[C@@H](O)/C=C\CCCCCCCCOC(C)=O [OH-3, (11S,16S,Z)-11,16-Dihydroxyoctadeca-9,17-dien-12,14-diynyl acetate] |  |  |  |  |  | 98 ± 6.3 µM | 93.6 ± 6.1 µM | 47.2 ± 5.9 µM | 90.3 ± 6.4 µM | 16.5 ± 2.2 µM |  |
| C=C[C@H](O)C#CC#C[C@@H](O)/C=C\CCCCCCC [OH-1, (3S,8S,Z)-Heptadeca-1,9-dien-4,6-diyne-3,8-diol] |  |  |  |  |  |  |  |  |  |  | IC50 ([1]; Homo sapiens, A549, 24 h): 23.5 ± 4.1 µM; inhibition at 60 µM ([1]; Homo sapiens, A549, read-out: A549 cell growth inhibited): 95.6%; IC50 ([2]; Homo sapiens, MCF7, 24 h): 15.3 ± 0.3 µM; IC50 ([3]; Homo sapiens, HepG2, 24 h): 7.7 ± 1.3 µM; IC50 ([4]; Homo sapiens, L02, 24 h): 8.7 ± 0.5 µM; IC50 ([5]; Homo sapiens, MDA-MB-231, 24 h): 4.7 ± 1.4 µM |
| (11S,16S,Z)-16-Hydroxyoctadeca-9,17-dien-12,14-diyne-1,11-diyl diacetate [OHR-10] | 101 ± 7.3 µM | 94.3 ± 6.1 µM | 78.4 ± 6.5 µM | 100 to 300 µM | 56.7 ± 6.9 µM |  |  |  |  |  |  |
| (3S,8S,Z)-3,18-Dihydroxyoctadeca-1,9-dien-4,6-diyn-8-yl acetate [OHR-15] | > 300 µM | > 300 µM | > 300 µM | > 300 µM | 100 to 300 µM |  |  |  |  |  | antiproliferative effect on A549 cells (in words) [1]: no cytotoxicity; antiproliferative effect on MCF-7 cells (in words) [2]: no cytotoxicity; antiproliferative effect on HepG2 cells (in words) [3]: no cytotoxicity |
| (11S,16S,Z)-Octadeca-9,17-dien-12,14-diyne-1,11,16-triyl triacetate [OHR-8] | > 300 µM | > 300 µM | 100 to 300 µM | > 300 µM | 19.6 ± 6.9 µM |  |  |  |  |  |  |
| CC[C@H](O)C#CC#C[C@@H](O)/C=C\CCCCCCCCOC(C)=O [OH-4, (11S,16S,Z)-11,16-Dihydroxyoctadeca-9-en-12,14-diynyl acetate] |  |  |  |  |  | 109.9 ± 0.8 µM | 100 ± 7 µM | 69.1 ± 1.8 µM | 91.9 ± 13.4 µM | 87.8 ± 7.9 µM |  |
| (3S,8S,Z)-8-Hydroxyheptadeca-1,9-dien-4,6-diyn-3-yl acetate [OHR-6] |  |  | 38.5 ± 6.2 µM | 46.1 ± 11.7 µM | 36.2 ± 13.4 µM |  |  |  |  |  |  |
| CC[C@H](O)C#CC#C[C@@H](O)/C=C\CCCCCCCCO [OH-6, (11S,16S,Z)-Octadeca-9-en-12,14-diyne-1,11,16-triol] |  |  |  |  |  | 85.7 ± 13.2 µM | 106 ± 13.2 µM | 45.3 ± 6.3 µM | 90.8 ± 4 µM | 55.7 ± 11.8 µM |  |
| (3S,8S,Z)-Heptadeca-9-en-4,6-diyne-3,8-diyl diacetate [OHR-1] | > 300 µM | > 300 µM | 115 ± 17.1 µM | > 300 µM | 13.9 ± 3.4 µM |  |  |  |  |  | induction of apoptosis (Hoechst staining) [6]: induce obvious apoptosis; effect on mitochondrial membrane potential Δψm (JC-1) [7]: decreasing the Δψm; G2/M arrest rate at low concentration [8]: 24.6% ± 3.6%; G2/M arrest rate at high concentration [8]: 31.7% ± 3.2% |
| (3S,8S,Z)-8-Hydroxyheptadeca-9-en-4,6-diyn-3-yl acetate [OHR-4] | 31.4 µM and 33.3 µM | 28 ± 2.9 µM | 59.5 ± 3.1 µM | 34.3 ± 1.5 µM | 23.4 ± 3.2 µM |  |  |  |  |  |  |
| C=C[C@@H](C#CC#C[C@@H](O)/C=C\CCCCCCCCOC(C)=O)OC(C)=O [OHR-9] |  |  |  |  |  | 83.1 ± 8.4 µM | 81.3 ± 1 µM | 59.9 ± 3 µM | 86.2 ± 11.3 µM | 52 ± 7.5 µM |  |
| (11S,16S,Z)-11-Hydroxyoctadeca-9-en-12,14-diyne-1,16-diyl diacetate [OHR-11] | 98.2 ± 17.5 µM | 78.1 ± 3.4 µM | 77 ± 9.5 µM | 93.1 ± 14 µM | 51.5 ± 8.4 µM |  |  |  |  |  |  |
| CCCCCCC/C=C\[C@H](O)C#CC#C[C@@H](O)CC [OH-2, (3S,8S,Z)-Heptadeca-9-en-4,6-diyne-3,8-diol] |  |  |  |  |  | 44.1 ± 9.4 µM | 27.5 ± 2.2 µM | 38.4 ± 7.5 µM | 30.2 ± 4.8 µM | 14.7 ± 2.7 µM |  |
| (3S,8S,Z)-3-Hydroxyheptadeca-9-en-4,6-diyn-8-yl acetate [OHR-3] | 30.1 µM and 31.4 µM | 25.8 ± 5.8 µM | 31.5 ± 2.1 µM | 31.5 ± 4 µM | 6.6 ± 0.8 µM |  |  |  |  |  | A549 cell growth inhibited ([1]; at 60 µM, p < 0.01): 90.8%; induction of apoptosis (Hoechst staining) [6]: induce obvious apoptosis; effect on mitochondrial membrane potential Δψm (JC-1) [7]: decreasing the Δψm; G2/M arrest rate at low concentration [8]: 24.2% ± 2.9%; G2/M arrest rate at high concentration [8]: 25.6% ± 7.5% |
| CC[C@H](O)C#CC#C[C@H](/C=C\CCCCCCCCOC(C)=O)OC(C)=O [OHR-12, (11S,16S,Z)-16-Hydroxyoctadeca-9-en-12,14-diyne-1,11-diyl diacetate] |  |  |  |  |  | 100 to 300 µM | 90.7 ± 0.3 µM | 100 to 300 µM | 100 to 300 µM | 77.7 ± 1.9 µM |  |
| C=C[C@H](O)C#CC#C[C@@H](O)/C=C\CCCCCCCCO [OH-5, (11S,16S,Z)-Octadeca-9,17-dien-12,14-diyne-1,11,16-triol] |  |  |  |  |  | 150 to 300 µM | 94.4 ± 7.3 µM | 48.3 ± 5.9 µM | 91 ± 9.5 µM | 49 ± 10.9 µM |  |
| (3S,8S,Z)-18-Hydroxyoctadeca-9-en-4,6-diyne-3,8-diyl diacetate [OHR-13] | > 300 µM | > 300 µM | > 300 µM | > 300 µM | 137 ± 28.4 µM |  |  |  |  |  | antiproliferative effect on A549 cells (in words) [1]: no cytotoxicity; antiproliferative effect on MCF-7 cells (in words) [2]: no cytotoxicity; antiproliferative effect on HepG2 cells (in words) [3]: no cytotoxicity; concentration showing some antiproliferative effects on MDA-MB-231 cells [5]: about 150 µM |
| (11S,16S,Z)-Octadeca-9-en-12,14-diyne-1,11,16-triyl triacetate [OHR-7] | > 300 µM | > 300 µM | > 300 µM | > 300 µM | > 300 µM |  |  |  |  |  |  |
